Assay [1] concerns the target Wee1-like protein kinase (Homo sapiens) (UniProt P30291). Briefly: Selectivity interaction (Kinase panel (KiNativ target engagement assay in Jurkat cells)) EUB0001635a WEE1. The assay is classed as cell-based. As to conditions: at 1 µM.
Assay [2] addresses SRSF protein kinase 2 (Homo sapiens) (UniProt P78362). Kind of assay: Selectivity interaction (Ambit KINOMEscan and KiNATiv profiling in Jurkat cells) EUB0000090b SRPK2. The assay is classed as cell-based. The note with it: at 1 µM.
For assay [3] the target is unchanged. Briefly: Selectivity interaction (KinomeScan (DiscoverX)) EUB0000607a SRPK2. As to conditions: at 10 µM.
Assay [4] addresses MAP kinase-interacting serine/threonine-protein kinase 2 (Homo sapiens, UniProt Q9HBH9). Briefly: Selectivity interaction (KinomeScan (DiscoverX)) EUB0000666a MKNK2. The note with it: at 10 µM.
In assay [5] the target is T1, Muscarinic acetylcholine receptor M1 (Homo sapiens) (UniProt P11229).
T1 sequence (whole entry): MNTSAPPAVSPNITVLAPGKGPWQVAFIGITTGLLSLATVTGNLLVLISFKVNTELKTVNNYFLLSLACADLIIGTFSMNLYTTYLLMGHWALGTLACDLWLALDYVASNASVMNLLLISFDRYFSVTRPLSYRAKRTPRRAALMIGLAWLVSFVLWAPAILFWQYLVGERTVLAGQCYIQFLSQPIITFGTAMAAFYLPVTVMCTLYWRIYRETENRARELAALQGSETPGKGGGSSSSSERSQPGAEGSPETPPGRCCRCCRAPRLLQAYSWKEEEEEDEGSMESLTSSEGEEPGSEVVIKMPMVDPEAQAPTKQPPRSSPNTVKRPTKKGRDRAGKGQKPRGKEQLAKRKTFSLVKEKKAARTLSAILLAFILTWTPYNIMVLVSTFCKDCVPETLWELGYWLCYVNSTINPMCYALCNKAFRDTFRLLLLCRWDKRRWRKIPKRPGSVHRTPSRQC
Briefly: Selectivity interaction (Panel of kinases, GPCRs, ion channels and transporters (enzymatic assay)) EUB0000266bCl CHRM1.

Assay [6] concerns the target Mitogen-activated protein kinase 7 (Homo sapiens) (UniProt Q13164). Briefly: Selectivity interaction (KinomeScan (DiscoverX)) EUB0001619a MAPK7. As to conditions: at 1 µM.
Assay [7] has as its target cAMP-dependent protein kinase catalytic subunit alpha (Homo sapiens, UniProt P17612). Kind of assay: Selectivity interaction (Kinase counterscreening (biochemical assay)) EUB0000604a PRKACA. (In general: Counterscreens check selectivity or assay interference.)
Assay [8] concerns the target Serine/threonine-protein kinase pim-2 (Homo sapiens, UniProt Q9P1W9). Briefly: Selectivity interaction (Enzymatic assay (Eurofins)) EUB0001049a PIM2.
A further assay addresses Histamine H1 receptor (Homo sapiens, UniProt P35367). Kind of assay: Selectivity interaction (Panel of kinases, GPCRs, ion channels and transporters (enzymatic assay)) EUB0000223bCl HRH1.
Assay [9] addresses T2, Calcium/calmodulin-dependent protein kinase type IV (Homo sapiens) (UniProt Q16566).
T2 sequence (whole entry): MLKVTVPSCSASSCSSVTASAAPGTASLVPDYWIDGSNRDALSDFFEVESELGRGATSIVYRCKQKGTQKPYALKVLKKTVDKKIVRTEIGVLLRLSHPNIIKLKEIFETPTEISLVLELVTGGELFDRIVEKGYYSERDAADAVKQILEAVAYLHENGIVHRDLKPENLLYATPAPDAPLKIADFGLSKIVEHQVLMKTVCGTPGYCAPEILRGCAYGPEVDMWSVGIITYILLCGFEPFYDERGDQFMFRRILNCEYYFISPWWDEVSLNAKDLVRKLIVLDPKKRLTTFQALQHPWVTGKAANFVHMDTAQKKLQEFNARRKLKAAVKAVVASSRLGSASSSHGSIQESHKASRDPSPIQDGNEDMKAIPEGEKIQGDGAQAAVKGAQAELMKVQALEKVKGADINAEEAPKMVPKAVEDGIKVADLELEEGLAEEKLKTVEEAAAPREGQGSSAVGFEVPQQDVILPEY
Briefly: Selectivity interaction (Kinase panel (DSF assay)) EUB0001559a CAMK4.

Assay [10] concerns the target Epithelial discoidin domain-containing receptor 1 (Homo sapiens) (UniProt Q08345). Kind of assay: Selectivity interaction (KinomeScan (DiscoverX)) EUB0000618a DDR1. As to conditions: at 10 µM.
Assay [11] concerns the target Receptor tyrosine-protein kinase erbB-2 (Homo sapiens, UniProt P04626). Briefly: Selectivity interaction (KinomeScan (DiscoverX)) EUB0000618a ERBB2. The note with it: at 10 µM.
For assay [12], the target named is Tyrosine-protein kinase receptor UFO (Homo sapiens) (UniProt P30530). Briefly: Selectivity interaction (Upstate Kinase Profiler service (Millipore)) EUB0000056c AXL. As to conditions: at 1 µM.
Assay [13] deals with T3, Bone morphogenetic protein receptor type-2 (Homo sapiens) (UniProt Q13873).
T3 sequence (whole entry): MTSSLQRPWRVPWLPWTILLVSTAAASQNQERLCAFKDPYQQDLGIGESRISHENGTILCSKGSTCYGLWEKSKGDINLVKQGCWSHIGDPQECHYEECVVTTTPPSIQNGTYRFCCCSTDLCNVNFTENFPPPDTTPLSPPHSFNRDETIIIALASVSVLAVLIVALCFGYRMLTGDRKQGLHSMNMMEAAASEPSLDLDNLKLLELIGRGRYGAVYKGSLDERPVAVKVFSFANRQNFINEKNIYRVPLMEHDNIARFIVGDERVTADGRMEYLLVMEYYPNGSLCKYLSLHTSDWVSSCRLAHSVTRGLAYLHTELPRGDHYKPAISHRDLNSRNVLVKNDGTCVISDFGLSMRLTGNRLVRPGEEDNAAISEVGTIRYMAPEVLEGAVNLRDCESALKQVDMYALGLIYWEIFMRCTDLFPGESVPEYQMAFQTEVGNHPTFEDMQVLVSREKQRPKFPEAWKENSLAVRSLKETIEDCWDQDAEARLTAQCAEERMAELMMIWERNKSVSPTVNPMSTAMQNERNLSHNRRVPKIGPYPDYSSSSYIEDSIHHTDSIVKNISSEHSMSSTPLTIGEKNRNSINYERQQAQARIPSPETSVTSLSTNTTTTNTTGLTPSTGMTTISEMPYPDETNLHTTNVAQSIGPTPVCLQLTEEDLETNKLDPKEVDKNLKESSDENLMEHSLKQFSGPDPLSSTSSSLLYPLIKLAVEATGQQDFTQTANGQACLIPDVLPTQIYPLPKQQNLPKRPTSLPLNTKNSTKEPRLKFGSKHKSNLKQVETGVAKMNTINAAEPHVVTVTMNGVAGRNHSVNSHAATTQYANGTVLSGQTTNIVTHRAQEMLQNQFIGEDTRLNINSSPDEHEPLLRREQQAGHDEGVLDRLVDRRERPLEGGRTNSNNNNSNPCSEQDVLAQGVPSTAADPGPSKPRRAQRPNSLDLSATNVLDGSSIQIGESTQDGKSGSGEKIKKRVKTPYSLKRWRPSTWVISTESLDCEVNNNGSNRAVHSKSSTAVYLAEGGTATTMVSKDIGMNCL
Briefly: Selectivity interaction (KinomeScan (DiscoverX)) EUB0000595a BMPR2. As to conditions: at 10 µM.

For orientation: Ki means the equilibrium dissociation constant of an inhibitor or competing ligand from its target. High values mean a looser hold on the target, low ones a stronger hold on the target. In general, IC50 refers to the point on the concentration scale where inhibition reaches its midpoint.

Where only a bound is given, the exact number is not on record here.

SRSF protein kinase 2 (Homo sapiens), sequence (P78362 whole entry, looked up): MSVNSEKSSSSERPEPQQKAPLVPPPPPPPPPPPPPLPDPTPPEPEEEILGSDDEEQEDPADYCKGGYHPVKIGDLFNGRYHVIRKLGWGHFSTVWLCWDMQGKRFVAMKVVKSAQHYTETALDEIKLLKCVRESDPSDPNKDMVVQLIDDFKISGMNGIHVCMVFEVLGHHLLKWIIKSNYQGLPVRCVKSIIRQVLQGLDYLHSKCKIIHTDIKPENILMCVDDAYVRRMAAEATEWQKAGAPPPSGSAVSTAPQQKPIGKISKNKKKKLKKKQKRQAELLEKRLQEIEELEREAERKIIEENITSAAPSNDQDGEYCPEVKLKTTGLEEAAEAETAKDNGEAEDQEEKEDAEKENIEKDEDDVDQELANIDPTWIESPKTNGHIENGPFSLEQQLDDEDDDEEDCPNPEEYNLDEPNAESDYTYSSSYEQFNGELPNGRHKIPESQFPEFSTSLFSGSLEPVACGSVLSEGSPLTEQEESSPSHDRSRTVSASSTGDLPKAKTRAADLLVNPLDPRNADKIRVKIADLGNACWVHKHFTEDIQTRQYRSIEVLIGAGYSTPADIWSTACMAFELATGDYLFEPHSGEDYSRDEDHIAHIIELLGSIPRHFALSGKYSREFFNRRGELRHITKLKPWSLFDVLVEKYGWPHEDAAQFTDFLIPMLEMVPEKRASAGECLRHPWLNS
Epithelial discoidin domain-containing receptor 1 (Homo sapiens), sequence (Q08345 whole entry, the tested form may be a part): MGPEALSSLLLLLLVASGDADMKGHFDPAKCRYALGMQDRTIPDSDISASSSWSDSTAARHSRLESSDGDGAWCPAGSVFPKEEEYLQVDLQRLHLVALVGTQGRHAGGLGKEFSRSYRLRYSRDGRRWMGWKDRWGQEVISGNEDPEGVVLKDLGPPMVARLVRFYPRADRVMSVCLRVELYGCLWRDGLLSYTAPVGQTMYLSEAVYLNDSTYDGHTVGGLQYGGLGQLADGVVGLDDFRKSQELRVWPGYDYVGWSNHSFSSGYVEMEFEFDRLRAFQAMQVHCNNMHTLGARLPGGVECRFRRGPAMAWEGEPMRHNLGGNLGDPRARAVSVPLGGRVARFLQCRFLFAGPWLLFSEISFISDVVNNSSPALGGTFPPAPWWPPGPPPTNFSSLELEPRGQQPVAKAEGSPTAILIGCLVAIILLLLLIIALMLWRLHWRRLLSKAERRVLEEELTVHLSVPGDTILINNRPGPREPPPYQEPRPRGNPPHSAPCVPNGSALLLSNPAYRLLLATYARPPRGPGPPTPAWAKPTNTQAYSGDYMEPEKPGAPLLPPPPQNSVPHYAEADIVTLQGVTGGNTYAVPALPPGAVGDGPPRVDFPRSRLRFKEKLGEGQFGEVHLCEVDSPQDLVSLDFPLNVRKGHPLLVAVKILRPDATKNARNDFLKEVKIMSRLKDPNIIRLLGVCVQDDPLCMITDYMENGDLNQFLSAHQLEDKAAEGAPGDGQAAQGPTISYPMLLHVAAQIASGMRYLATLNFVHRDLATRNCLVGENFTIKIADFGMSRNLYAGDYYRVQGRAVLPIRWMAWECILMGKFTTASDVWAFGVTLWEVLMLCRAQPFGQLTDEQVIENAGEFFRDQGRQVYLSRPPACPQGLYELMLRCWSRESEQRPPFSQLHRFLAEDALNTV
Histamine H1 receptor, sequence (P35367 whole entry): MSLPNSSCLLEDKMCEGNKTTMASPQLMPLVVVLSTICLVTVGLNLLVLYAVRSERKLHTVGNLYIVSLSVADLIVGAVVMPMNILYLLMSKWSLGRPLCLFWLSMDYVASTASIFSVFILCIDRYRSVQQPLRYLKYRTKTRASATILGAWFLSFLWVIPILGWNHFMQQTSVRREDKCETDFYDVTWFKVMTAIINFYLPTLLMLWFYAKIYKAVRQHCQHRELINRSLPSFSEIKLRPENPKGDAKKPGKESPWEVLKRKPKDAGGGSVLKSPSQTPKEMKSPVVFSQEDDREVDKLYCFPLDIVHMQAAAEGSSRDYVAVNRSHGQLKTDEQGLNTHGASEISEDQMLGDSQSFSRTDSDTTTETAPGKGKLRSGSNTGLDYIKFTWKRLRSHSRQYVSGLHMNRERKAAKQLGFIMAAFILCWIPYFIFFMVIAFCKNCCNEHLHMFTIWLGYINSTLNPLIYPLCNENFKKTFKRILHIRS
Wee1-like protein kinase (Homo sapiens), sequence (P30291 whole entry, looked up): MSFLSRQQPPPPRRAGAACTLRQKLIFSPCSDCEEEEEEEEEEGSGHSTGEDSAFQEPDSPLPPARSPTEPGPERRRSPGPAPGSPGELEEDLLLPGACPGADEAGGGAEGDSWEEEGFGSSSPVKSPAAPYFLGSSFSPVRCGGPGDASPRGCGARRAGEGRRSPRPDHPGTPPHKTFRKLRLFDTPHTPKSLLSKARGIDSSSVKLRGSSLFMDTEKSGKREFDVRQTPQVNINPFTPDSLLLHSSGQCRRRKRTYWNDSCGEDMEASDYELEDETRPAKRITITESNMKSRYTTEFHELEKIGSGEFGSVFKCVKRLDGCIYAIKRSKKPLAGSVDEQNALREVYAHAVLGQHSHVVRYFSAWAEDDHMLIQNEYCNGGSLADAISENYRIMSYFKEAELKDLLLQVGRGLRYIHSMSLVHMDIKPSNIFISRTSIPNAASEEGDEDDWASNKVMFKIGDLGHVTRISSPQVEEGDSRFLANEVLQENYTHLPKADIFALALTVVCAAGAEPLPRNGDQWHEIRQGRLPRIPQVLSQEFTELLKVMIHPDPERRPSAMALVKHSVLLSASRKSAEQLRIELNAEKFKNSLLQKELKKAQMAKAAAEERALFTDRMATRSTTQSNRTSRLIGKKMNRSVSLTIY
Receptor tyrosine-protein kinase erbB-2, sequence (P04626 whole entry): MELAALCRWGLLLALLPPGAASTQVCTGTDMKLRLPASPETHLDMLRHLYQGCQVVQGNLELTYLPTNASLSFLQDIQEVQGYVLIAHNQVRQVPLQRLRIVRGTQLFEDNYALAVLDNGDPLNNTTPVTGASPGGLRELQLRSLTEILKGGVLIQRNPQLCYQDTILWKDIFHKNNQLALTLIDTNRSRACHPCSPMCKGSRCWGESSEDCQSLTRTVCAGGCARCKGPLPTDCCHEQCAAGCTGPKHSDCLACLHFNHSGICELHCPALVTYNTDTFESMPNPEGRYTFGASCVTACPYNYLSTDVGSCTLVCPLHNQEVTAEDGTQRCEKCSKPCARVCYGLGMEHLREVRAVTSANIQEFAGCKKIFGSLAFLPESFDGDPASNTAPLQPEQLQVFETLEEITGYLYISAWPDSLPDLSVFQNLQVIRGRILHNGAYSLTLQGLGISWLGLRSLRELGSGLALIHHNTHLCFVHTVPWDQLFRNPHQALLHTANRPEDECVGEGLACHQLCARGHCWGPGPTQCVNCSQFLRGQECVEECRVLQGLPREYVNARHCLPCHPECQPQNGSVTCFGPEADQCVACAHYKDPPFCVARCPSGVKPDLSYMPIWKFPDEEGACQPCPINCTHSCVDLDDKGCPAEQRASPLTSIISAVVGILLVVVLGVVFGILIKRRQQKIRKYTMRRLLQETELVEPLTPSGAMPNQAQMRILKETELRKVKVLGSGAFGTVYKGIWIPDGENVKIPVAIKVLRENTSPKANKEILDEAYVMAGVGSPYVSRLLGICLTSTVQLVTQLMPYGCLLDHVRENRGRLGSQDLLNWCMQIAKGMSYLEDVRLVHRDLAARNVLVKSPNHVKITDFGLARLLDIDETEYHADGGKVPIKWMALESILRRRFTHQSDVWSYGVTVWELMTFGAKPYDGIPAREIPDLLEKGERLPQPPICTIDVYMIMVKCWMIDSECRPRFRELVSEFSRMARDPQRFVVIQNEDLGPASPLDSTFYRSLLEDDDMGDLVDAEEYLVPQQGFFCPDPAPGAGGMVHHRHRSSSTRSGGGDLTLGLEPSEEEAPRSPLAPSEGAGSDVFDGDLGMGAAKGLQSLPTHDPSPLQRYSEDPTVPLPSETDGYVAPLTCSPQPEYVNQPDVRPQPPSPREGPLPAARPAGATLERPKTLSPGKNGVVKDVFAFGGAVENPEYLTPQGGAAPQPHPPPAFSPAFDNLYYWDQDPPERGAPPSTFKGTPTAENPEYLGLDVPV
Serine/threonine-protein kinase pim-2, sequence (Q9P1W9 whole entry): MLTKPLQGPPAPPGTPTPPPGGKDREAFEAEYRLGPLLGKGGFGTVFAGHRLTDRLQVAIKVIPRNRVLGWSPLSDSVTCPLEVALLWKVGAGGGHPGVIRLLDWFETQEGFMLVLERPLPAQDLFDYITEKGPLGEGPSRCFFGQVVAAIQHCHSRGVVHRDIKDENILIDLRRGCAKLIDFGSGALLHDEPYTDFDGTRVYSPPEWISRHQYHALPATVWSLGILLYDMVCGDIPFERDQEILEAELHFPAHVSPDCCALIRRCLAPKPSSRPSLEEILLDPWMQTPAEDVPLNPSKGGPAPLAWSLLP
MAP kinase-interacting serine/threonine-protein kinase 2, sequence (Q9HBH9 whole entry, looked up): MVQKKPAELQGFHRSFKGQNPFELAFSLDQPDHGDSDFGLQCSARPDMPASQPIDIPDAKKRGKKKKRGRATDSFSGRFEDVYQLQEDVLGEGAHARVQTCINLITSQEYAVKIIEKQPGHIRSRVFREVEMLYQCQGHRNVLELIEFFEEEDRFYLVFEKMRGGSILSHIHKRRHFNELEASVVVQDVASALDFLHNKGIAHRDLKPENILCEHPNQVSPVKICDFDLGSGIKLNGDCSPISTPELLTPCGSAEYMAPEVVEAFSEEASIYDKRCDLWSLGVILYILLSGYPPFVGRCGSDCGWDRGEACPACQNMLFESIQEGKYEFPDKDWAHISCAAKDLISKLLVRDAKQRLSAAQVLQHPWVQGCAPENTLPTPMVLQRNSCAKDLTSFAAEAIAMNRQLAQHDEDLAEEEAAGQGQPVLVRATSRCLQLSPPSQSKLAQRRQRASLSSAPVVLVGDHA

As for `C=CC(=O)Nc1ccc(C(=O)Nc2[nH]nc3c2CN(C(=O)N[C@H](CN(C)C)c2ccccc2)C3(C)C)cc1`, in assay [1], the % of engagement came to 24%.
Consider `CN(C)C/C=C/C(=O)Nc1ccc(C(=O)N2CCCC(Nc3ncc(Cl)c(-c4c[nH]c5ccccc45)n3)C2)cc1` (centres undefined), for which, in assay [2], the % of control was 98%.
For `CNC(=O)Nc1ccc(-c2nc(N3CC4CCC(C3)O4)c3cnn(C4CCC5(CC4)OCCO5)c3n2)cc1`, the % of control in assay [3] came out at 90%.
Regarding `O=C(NOC[C@H](O)CO)c1ccc(F)c(F)c1Nc1ccc(I)cc1F`, in [4], the % of control came to 100%.
In assay [5], `CCn1c(-c2nc3cc(C(=O)N4CCCC(N)C4)ccc3n2C)cc2ccccc21` (centres undefined) displayed a pXC50 of 4.8 M.
In assay [6], `N#Cc1cccc(-c2c[nH]c3ncnc(N4CCOCC4)c23)c1` had a % of control of 100%.
The molecule `Cc1cnc(Nc2ccc(F)cc2Cl)nc1-c1c[nH]c(C(=O)N[C@H](CO)c2cccc(Cl)c2)c1` had a Ki in [7] above 4 µM.
Regarding `COc1cc(Nc2nc(C)cc(-c3cnn4nc(OC)ccc34)n2)cc(C(F)(F)F)c1`, the half-inhibitory concentration (IC50) in [8] was above 10 µM.
For the molecule `COc1cc(C(=O)N2CC[C@@H](O)[C@@H](N)C2)cc2nc(-c3cc4ccccc4n3CC3CC3)n(C)c12`, at Histamine H1 receptor, the pXC50 is below 4.4 M.
Take `CN(C(=O)c1cnn2cccnc12)c1cc2c(cc1N1CCOCC1)C(=O)N(C[C@@H](F)C(C)(C)O)C2`: in assay [9], the dTM is -0.4 K.
Consider `O[C@H]1CC[C@H](Nc2ncc3nc(Nc4c(F)cc(F)cc4F)n([C@H]4CCOC4)c3n2)CC1`, for which the values for the % of control in assay [10] and in [11] were 27% and 52%, respectively.
The molecule `Cc1ccc(-c2ccc3c(ccc4sc5c(c43)NC[C@@H](C)NC5=O)n2)cn1` gave a % of inhibition in assay [12] of 58%.
With `COCC(=O)NC/C=C/c1ccc2ncnc(Nc3ccc(Oc4ccc(C)nc4)c(C)c3)c2c1` [CP-724714], in [13], the % of control came out at 74%.

The values above are taken from ChEMBL document CHEMBL5465560, “Selectivity Literature for EUbOPEN Chemogenomic Library” (2024).
